pIC50: −log10 of the molar value. Where only a bound is given, the exact number is not on record here.

The subject of one assay is Paw Edema. Put plainly: Rat paw edema assay (carrageenan). In kind it is in vivo. The following applies: male Sprague-Dawley rats, 3 hr after carrageenan. The procedure: Male Sprague-Dawley rats (150–200 g) are fasted overnight and are given p.o., either vehicle (1% methocell) or a test compound in the morning. One hr later, a line drawn using a permanent marker at the level above the ankle in one hind paw to define the area of the paw to be monitored. The paw volume (VOh) is measured using a plethysmometer (Ugo-Basile, Italy) based on the principle of water displacement. The animals are then injected subplantarly with 50 ul of a 1% carrageenan solution in saline (sigma Chem) into the paw using an insulin syringe with a 25-gauge needle (i.e. 500 ug carrageenan per paw). Three hr later, the paw volume (V3h) is measured and the increases in paw volume (V3h−VOh) are calculated. Paw edema data are the compared with the vehicle-control group and percent inhibitions calculated taking the values in the control group as 100%. All treatment groups are coded to eliminate observer bias.

Another assay has as its target T1, microsomal human COX-2 (Homo sapiens, UniProt P35354).
T1 construct: from which microsomes are prepared for microsomal assays, are human osteosarcoma 143 cells; endogenous in cells; host or cells: human osteosarcoma 143 cells (microsomal fraction)
T1 sequence (P35354 18-604): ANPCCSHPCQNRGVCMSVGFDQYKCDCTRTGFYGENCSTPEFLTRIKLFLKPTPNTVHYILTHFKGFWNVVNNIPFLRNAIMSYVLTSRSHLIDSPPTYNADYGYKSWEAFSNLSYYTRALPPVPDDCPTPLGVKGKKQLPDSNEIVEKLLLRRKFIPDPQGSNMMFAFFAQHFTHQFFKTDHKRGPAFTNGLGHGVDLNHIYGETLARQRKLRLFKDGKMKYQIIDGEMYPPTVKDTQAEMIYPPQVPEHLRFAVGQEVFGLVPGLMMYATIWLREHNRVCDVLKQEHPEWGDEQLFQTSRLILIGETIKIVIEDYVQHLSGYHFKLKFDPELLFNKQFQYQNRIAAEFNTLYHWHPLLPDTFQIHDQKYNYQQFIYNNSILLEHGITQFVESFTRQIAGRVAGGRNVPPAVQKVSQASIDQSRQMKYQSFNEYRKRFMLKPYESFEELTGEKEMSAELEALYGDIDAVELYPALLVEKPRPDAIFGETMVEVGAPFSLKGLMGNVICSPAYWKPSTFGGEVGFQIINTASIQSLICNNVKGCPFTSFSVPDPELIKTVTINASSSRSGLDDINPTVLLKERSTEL
Put plainly: Microsomal cyclooxygenase assay, COX-2. In kind it is biochemical. The following applies: microsomal fraction, PGE2 by EIA; read-out: IC50 against microsomal human COX-2. How it is done: (§1) Compounds are tested as inhibitors of cyclooxygenase activity in whole cell and microsomal cyclooxygenase assays. Both of these assays measure prostaglandin E2 (PGE2) synthesis in response to arachidonic acid, using a radioimmunoassay. Cells used for whole cell assays, and from which microsomes are prepared for microsomal assays, are human osteosarcoma 143 cells (which specifically express cyclooxygenase-2) and human U-937 cells (which specifically express cyclooxygenase-1). In these assays, 100% activity is defined as the difference between prostaglandin E2 synthesis in the absence and presence of arachidonate addition. IC50 values represent the concentration of putative inhibitor required to return PGE2 synthesis to 50% of that obtained as compared to the uninhibited control.
(§2) Cox microsomal fractions are prepared as previously described (Percival et al., Arch. Biochem. Biophys. (1994) 315:111–118). The enzyme reactions are performed in 50 mM KPi pH 8.0, 1 μM heme, 1 mM phenol supplemented with 10 μg/ml of each Cox-1 or Cox-2 microsomal fractions. 1 μl DMSO or test compound (100 fold stock concentrated in DMSO) are added to 100 μl buffer. The enzyme reaction is initiated 15 minutes later by the addition of 10 μl of 100 μM arachidonic acid. […] PGE2 levels are then determined by EIA (Assay Designs) using the manufacturer's instruction.

The target in another assay is T2, microsomal human COX-1 (Homo sapiens, UniProt P23219).
T2 construct: from which microsomes are prepared for microsomal assays, are human osteosarcoma 143 cells; endogenous in cells; host or cells: human U-937 cells (microsomal fraction)
As to the kind of experiment: Microsomal cyclooxygenase assay, COX-1. In kind it is biochemical. The following applies: microsomal fraction, PGE2 by EIA; read-out: IC50 against microsomal human COX-1. The procedure:
as §1, §2

T2 sequence (P23219 24-599): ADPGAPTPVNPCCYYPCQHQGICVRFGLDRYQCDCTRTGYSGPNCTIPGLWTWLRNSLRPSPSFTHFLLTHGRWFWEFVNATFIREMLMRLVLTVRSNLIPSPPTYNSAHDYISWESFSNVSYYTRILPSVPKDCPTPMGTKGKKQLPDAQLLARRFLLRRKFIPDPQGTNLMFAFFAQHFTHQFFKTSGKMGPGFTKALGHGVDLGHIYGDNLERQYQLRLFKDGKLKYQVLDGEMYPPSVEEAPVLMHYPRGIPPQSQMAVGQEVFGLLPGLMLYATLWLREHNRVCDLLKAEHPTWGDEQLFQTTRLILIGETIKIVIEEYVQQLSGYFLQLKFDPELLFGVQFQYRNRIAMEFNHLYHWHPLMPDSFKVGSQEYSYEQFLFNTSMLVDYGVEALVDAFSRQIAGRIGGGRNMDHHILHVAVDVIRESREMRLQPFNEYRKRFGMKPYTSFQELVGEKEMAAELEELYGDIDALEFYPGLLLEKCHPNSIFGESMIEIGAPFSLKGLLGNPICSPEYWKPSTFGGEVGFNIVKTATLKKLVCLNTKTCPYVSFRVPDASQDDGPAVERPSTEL

`COC(=O)/C(=C(\COC(=O)OCCCCO[N+](=O)[O-])c1ccc(S(C)(=O)=O)cc1)c1ccccc1` [Example 3, methyl (2Z)-3-[4-(methylsulfonyl)phenyl]-4-({[4-(nitrooxy)butoxy]carbonyl}oxy)-2-phenylbut-2-enoate]: the “Paw Edema (% inhibition)” value in the assay on Paw Edema (dose 1 mg/kg p.o.) was 42%; with Paw Edema (dose 3 mg/kg p.o.), 51%; in the assay on Paw Edema (dose 10 mg/kg p.o.) it was 68%; in the assay on Paw Edema (dose 30 mg/kg p.o.) it was 79%.

In general, pIC50 refers to −log10 of the IC50, conventionally taken in molar units. On to `CCOC(=O)/C(=C(\COC(=O)OCCCCCCO[N+](=O)[O-])c1ccc(S(C)(=O)=O)cc1)c1ccccc1` [Example 9, Ethyl (2Z)-3-[4-(methylsulfonyl)phenyl]-4-[({[6-(nitrooxy)hexyl]oxy}carbonyl)oxy]-2-phenylbut-2-enoate], for which the pIC50 at microsomal human COX-2 and on microsomal human COX-1 was < 4.00 in each case.

The record behind these values is patent US7199154B2, “Nitric oxide releasing prodrugs of diaryl-2-(5h)-furanones as cyclooxygenase-2 inhibitors” (Merck Frosst Company, priority 2002, dated 2007).
